What was measured:
EGFR L858R = EGFR L858R (Homo sapiens (Human), UniProt P00533, L858R); assay: Biochemical EGFR inhibition assay, EGFR L858R; conditions: Caliper mobility shift; 1.0 mM ATP or ATP Km; read-out: Enz EGFR_L858R IC50
Protocol: (§1) Reactions proceeded until between 10% to 20% total peptides were phosphorylated at room temperature (25° C.) and were terminated with 35 mM 2,2′,2″,2″-(ethane-1,2-diyldinitrilo)tetraacetic acid (EDTA). Product was detected using the Caliper mobility shift detection method where the phosphorylated peptide (product) and substrate were electrophoretically separated and measured. Percent activity was plotted against log concentration of compound and points to generate an apparent IC50.

EGFR (d746-750) = EGFR (d746-750) (Homo sapiens (Human), UniProt P00533, DEL746-750); assay: Biochemical EGFR inhibition assay, EGFR (d746-750); conditions: Caliper mobility shift; 1.0 mM ATP or ATP Km; read-out: Enz EGFR_Exon19-del746-750 IC50
Protocol: as §1

[1] = target: pEGFR (Tyr1068) in PC-9 cells (Ex19Del) (Homo sapiens (Human), UniProt P00533, DEL746-750); assay: PC-9 pEGFR AlphaLISA assay; type: cell-based; conditions: 4 hours incubation, p-EGFR (Tyr1068) AlphaLISA, read-out: Ext pEGFR_PC-9 Ex19Del IC50
Protocol: PC-9/A431 pEGFR AlphaLISA Assays
Inhibitory effects of compounds were evaluated in cellular assays that measure level of intracellular phosphorylation of EGFR in PC-9 (ECACC, #90071810, Milipore/Sigma) and A431 cell lines (ATCC, CRL-1555) using AlphaLISA sureFire ultra p-EGFR (Tyr1068) assay kit (PerkinElmer, ALSU-PEGFR-A50K). PC-9 cells were seeded at 3.125×10^5 cells/ml in 40 μL phenol-free DMEM supplemented with 10% FBS per well of a 384 well plate (Corning, 3764), while A431 were seeded at 3.125×10^5 cells/ml in 40 μL in phenol-free DMEM with 0.5% FBS. Cells were allowed to adhere overnight at 37° C./5% CO2. On the next day, compounds were transferred at 4-fold, 10-point serial dilution from compound source plate to cell plates using liquid handler Echo550 and were incubated at 37° C./5% CO2 for 4 hours. A431 cells were stimulated prior harvesting for 10 min with EGF at final concentration of 30 ng/ml in the incubator. Medium was removed from the plates and cells were lysed with 10 μL of 1× AlphaLISA lysis buffer (supplemented with 1× protease/phosphatase inhibitor cocktail) followed by shaking at 600 rpm for 30 minutes at room temperature. Lysates were transferred to Optiplate (Apricot designs) and 5 μl of 1× acceptor bead mix (prepared just before use) was added to each well followed by incubation at room temperature for 1.5-2 h in dark. Then 5 μL of freshly-made donor bead mix is added to each well under subdued lighting or green filters, was mixed well on the shaker and the plate was sealed and left for an overnight incubation at room temperature in dark. On the next day, the plate was read the Envision using standard AlphaLisa settings. Percent of pEGFR inhibition was plotted against log concentration of compounds to generate IC50 values.

Sequence of pEGFR (Tyr1068) in PC-9 cells (Ex19Del) (P00533 other isoform, or with tags, fused parts or gaps del 746-750): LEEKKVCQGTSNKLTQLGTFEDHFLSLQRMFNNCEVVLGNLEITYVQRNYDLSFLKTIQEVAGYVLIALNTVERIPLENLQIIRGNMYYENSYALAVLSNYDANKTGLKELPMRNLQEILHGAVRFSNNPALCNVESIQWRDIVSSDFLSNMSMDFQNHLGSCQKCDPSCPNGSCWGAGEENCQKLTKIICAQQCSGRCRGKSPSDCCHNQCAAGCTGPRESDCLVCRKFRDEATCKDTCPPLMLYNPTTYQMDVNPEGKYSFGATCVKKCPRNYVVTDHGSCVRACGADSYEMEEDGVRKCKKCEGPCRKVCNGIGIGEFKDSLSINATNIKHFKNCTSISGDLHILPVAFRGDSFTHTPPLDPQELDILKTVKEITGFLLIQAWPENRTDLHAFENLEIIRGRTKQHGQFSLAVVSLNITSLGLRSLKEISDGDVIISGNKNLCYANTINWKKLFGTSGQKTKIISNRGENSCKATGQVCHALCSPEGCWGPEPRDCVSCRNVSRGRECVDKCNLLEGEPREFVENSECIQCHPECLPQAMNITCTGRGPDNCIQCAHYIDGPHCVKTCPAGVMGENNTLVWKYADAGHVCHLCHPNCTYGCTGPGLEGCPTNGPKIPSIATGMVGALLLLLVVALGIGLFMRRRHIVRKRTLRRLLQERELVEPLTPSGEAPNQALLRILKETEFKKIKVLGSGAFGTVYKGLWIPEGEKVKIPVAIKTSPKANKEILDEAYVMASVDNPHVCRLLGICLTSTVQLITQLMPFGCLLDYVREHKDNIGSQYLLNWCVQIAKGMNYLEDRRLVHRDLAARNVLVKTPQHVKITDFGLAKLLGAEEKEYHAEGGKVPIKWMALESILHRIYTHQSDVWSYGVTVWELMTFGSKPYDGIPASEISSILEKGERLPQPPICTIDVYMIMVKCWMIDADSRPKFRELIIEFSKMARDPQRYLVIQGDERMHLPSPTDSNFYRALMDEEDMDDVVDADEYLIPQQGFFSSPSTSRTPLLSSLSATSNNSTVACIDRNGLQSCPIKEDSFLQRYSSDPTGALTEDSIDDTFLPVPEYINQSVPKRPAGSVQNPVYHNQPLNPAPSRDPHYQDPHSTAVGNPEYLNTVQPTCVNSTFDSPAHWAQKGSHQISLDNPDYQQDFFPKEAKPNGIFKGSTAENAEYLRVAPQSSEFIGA
Sequence of EGFR L858R (P00533 25-1210 L858R): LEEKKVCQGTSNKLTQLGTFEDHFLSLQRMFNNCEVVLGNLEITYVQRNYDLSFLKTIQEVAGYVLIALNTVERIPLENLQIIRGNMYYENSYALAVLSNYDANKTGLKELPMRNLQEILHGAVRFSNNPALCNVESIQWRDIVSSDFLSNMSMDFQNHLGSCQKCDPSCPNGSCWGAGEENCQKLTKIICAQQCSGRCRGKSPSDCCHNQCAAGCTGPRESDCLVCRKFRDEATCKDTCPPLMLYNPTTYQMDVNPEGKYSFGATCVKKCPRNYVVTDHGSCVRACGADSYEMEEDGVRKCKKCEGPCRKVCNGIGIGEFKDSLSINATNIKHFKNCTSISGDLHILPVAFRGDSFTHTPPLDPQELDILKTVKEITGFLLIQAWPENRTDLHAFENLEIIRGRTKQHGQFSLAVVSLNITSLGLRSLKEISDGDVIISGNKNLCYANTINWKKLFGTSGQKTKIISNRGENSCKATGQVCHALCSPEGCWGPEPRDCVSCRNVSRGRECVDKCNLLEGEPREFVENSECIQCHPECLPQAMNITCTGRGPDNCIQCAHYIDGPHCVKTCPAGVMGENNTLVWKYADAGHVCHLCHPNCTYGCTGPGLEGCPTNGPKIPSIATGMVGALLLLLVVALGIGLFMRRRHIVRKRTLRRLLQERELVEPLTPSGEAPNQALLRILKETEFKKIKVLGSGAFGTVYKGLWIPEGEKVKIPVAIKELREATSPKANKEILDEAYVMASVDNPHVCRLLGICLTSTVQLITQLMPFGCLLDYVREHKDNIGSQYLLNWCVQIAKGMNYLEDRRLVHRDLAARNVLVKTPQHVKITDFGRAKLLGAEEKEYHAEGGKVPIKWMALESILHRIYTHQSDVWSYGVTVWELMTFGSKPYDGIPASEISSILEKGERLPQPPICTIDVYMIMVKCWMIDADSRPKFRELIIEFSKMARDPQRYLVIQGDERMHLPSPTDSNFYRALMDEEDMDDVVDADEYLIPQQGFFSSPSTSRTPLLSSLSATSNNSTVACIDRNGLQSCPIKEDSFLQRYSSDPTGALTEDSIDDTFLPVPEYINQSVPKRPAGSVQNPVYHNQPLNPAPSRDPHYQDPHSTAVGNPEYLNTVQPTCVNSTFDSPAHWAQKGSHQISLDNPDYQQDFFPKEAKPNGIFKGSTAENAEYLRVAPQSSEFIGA
Sequence of EGFR (d746-750) (P00533 other isoform, or with tags, fused parts or gaps del 1-694/del 746-750 limits assumed): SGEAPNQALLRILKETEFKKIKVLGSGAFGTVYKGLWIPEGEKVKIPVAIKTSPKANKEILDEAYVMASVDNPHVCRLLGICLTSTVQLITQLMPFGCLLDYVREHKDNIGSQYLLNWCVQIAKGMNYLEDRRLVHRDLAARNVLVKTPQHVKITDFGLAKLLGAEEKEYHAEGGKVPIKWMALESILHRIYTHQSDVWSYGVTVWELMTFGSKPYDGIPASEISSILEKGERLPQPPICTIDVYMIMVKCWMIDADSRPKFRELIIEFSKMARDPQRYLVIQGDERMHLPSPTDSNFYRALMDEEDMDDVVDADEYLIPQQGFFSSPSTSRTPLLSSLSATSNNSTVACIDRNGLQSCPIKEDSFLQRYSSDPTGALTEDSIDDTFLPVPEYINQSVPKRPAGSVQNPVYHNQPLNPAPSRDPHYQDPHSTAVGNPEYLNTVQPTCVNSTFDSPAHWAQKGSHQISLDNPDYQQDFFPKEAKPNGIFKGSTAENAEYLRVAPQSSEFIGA

Question: Which IC50 (EGFR L858R) does the source give for `CCOc1cc2ncnc(-c3cn(C)nc3-c3ccccc3)c2cc1NC(=O)c1ccc(C2CC2)nc1` [Example 297, 6-cyclopropyl-N-(7-ethoxy-4-(1-methyl-3-phenyl-1H-pyrazol-4-yl)quinazolin-6-yl)nicotinamide] here?
Answer: 0.9 nM

Question: And the IC50 (EGFR (d746-750))?
Answer: 0.5 nM

Question: What about the IC50 [1] of the same compound?
Answer: 0.9 nM

Question: Which IC50 (EGFR L858R) does the source give for `COc1cc2ncnc(-c3cn(C)nc3-c3ccccc3F)c2nc1NC(=O)C1(C(F)(F)F)CC1` [Example 317, N-(4-(3-(2-fluorophenyl)-1-methyl-1H-pyrazol-4-yl)-7-methoxypyrido[3,2-d]pyrimidin-6-yl)-1-(trifluoromethyl)cyclopropane-1-carboxamide] here?
Answer: 2.7 nM

Question: And the IC50 (EGFR (d746-750))?
Answer: 1.2 nM

Question: And the IC50 [1]?
Answer: 1.5 nM

Question: For `COc1cc2ncnc(-c3cn(C)nc3-c3ccccc3)c2cc1NC(=O)C1(C)CCCO1` (stereo not drawn) [Example 224, N-(7-methoxy-4-(1-methyl-3-phenyl-1H-pyrazol-4-yl)quinazolin-6-yl)-2-methyltetrahydrofuran-2-carboxamide], which IC50 (EGFR L858R) is on record?
Answer: 5.1 nM

Question: And the IC50 (EGFR (d746-750))?
Answer: 3 nM

Question: And the IC50 [1]?
Answer: 3.9 nM

Question: What does the source list for `COc1cc2ncnc(-c3cn(C)nc3-c3ccccc3)c2cc1OC(=O)N1CCN(C)C(C)(C)C1` [Example 77, 7-methoxy-4-(1-methyl-3-phenyl-1H-pyrazol-4-yl)quinazolin-6-yl 3,3,4-trimethylpiperazine-1-carboxylate]?
Answer: IC50 (EGFR L858R): 7.2 nM; IC50 (EGFR (d746-750)): 3.5 nM; IC50 [1]: 9.7 nM

Question: For `COc1cc2ncnc(-c3cn(C)nc3-c3ccccc3)c2cc1NC(=O)c1cccnc1C` [Example 195, N-(7-methoxy-4-(1-methyl-3-phenyl-1H-pyrazol-4-yl)quinazolin-6-yl)-2-methylnicotinamide], which IC50 (EGFR L858R) is on record?
Answer: 3.8 nM

Question: And the IC50 (EGFR (d746-750))?
Answer: 1.6 nM

Question: What about the IC50 [1] of the same compound?
Answer: 5.9 nM

Question: How did the IC50 (EGFR L858R) turn out when `COc1cc2ncnc(-c3cn(C)nc3-c3ccccc3)c2cc1N1CCC[C@@H](O)C1` [Example 165, (R)-1-(7-methoxy-4-(1-methyl-3-phenyl-1H-pyrazol-4-yl)quinazolin-6-yl)piperidin-3-ol] was run?
Answer: 3.4 nM

Question: What about the IC50 (EGFR (d746-750)) of the same compound?
Answer: 1.7 nM

Question: What about the IC50 [1] of the same compound?
Answer: 10.2 nM

Question: `COc1cc2ncnc(-c3cn(C)nc3-c3c(F)cccc3F)c2cc1NC(=O)C1CC1` [Example 338, N-(4-(3-(2,6-difluorophenyl)-1-methyl-1H-pyrazol-4-yl)-7-methoxyquinazolin-6-yl)cyclopropanecarboxamide] was tested. Which IC50 (EGFR L858R) did it give?
Answer: 1.9 nM

Question: And the IC50 (EGFR (d746-750))?
Answer: 1.2 nM

Question: What about the IC50 [1] of the same compound?
Answer: 2.3 nM

Question: What does the source list for `COc1cc2ncnc(-c3cn(C)nc3-c3ccccc3)c2cc1NC(=O)c1cn(C(C)C)nc1C` [Example 217, 1-isopropyl-N-(7-methoxy-4-(1-methyl-3-phenyl-1H-pyrazol-4-yl)quinazolin-6-yl)-3-methyl-1H-pyrazole-4-carboxamide]?
Answer: IC50 (EGFR L858R): 1.7 nM; IC50 (EGFR (d746-750)): 0.9 nM; IC50 [1]: 1.2 nM

Question: Which IC50 (EGFR L858R) does the source give for `COc1cc2ncnc(-c3cn(C)nc3-c3ccccc3)c2cc1OC1CCOCC1` [Example 14, 7-methoxy-4-(1-methyl-3-phenyl-1H-pyrazol-4-yl)-6-((tetrahydro-2H-pyran-4-yl)oxy)quinazoline] here?
Answer: 3.6 nM

Question: And the IC50 (EGFR (d746-750))?
Answer: 2 nM

Question: And the IC50 [1]?
Answer: 5 nM

Question: Which results are given for `COc1cc2ncnc(-c3cn(C)nc3-c3ccccc3)c2nc1OC(C)c1nnc(C)o1` (stereo not drawn) [Example 27, 2-(1-((7-methoxy-4-(1-methyl-3-phenyl-1H-pyrazol-4-yl)pyrido[3,2-d]pyrimidin-6-yl)oxy)ethyl)-5-methyl-1,3,4-oxadiazole]?
Answer: IC50 (EGFR L858R): 5.5 nM; IC50 (EGFR (d746-750)): 3 nM; IC50 [1]: 8.1 nM

Question: With `CCn1cc(-c2ncnc3cc(OC)c(NC(=O)c4cnn(C(F)(F)F)c4)cc23)c(-c2ccccc2)n1` [Example 307, N-(4-(1-ethyl-3-phenyl-1H-pyrazol-4-yl)-7-methoxyquinazolin-6-yl)-1-(trifluoromethyl)-1H-pyrazole-4-carboxamide] as the compound, how does the IC50 (EGFR L858R) read?
Answer: 1.7 nM

Question: And the IC50 (EGFR (d746-750))?
Answer: 0.9 nM

Question: What about the IC50 [1] of the same compound?
Answer: 1.4 nM

Question: Which IC50 (EGFR L858R) does the source give for `COc1cc2ncnc(-c3cn(C)nc3-c3ccccc3)c2nc1NC(=O)[C@@]12CN(C)C[C@@H]1C2(F)F` (single isomer, unassigned) [Example 417, (1S,5R)-6,6-difluoro-N-(7-methoxy-4-(1-methyl-3-phenyl-1H-pyrazol-4-yl)pyrido[3,2-d]pyrimidin-6-yl)-3-methyl-3-azabicyclo[3.1.0]hexane-1-carboxamide or (1R,5S)-6,6-difluoro-N-(7-methoxy-4-(1-methyl-3-phenyl-1H-pyrazol-4-yl)pyrido[3,2-d]pyrimidin-6-yl)-3-methyl-3-azabicyclo[3.1.0]hexane-1-carboxamide] here?
Answer: 1.5 nM

Question: What about the IC50 (EGFR (d746-750)) of the same compound?
Answer: 0.8 nM

Question: And the IC50 [1]?
Answer: 0.9 nM

Question: With `COc1cc2ncnc(-c3cn(C)nc3-c3ccccc3)c2cc1NC(=O)c1ccccc1F` [Example 198, 2-fluoro-N-(7-methoxy-4-(1-methyl-3-phenyl-1H-pyrazol-4-yl)quinazolin-6-yl)benzamide] as the compound, how does the IC50 (EGFR L858R) read?
Answer: 1.3 nM

Question: And the IC50 (EGFR (d746-750))?
Answer: 0.8 nM

Question: And the IC50 [1]?
Answer: 1.1 nM

Question: `CCOc1cc2ncnc(-c3cn(C)nc3-c3ccccc3)c2cc1[C@H](C)O` (single isomer, unassigned) [Example 103, (S)-1-(7-ethoxy-4-(1-methyl-3-phenyl-1H-pyrazol-4-yl)quinazolin-6-yl)ethan-1-ol or (R)-1-(7-ethoxy-4-(1-methyl-3-phenyl-1H-pyrazol-4-yl)quinazolin-6-yl)ethan-1-ol] was tested. Which IC50 (EGFR L858R) did it give?
Answer: 1.7 nM

Question: What about the IC50 (EGFR (d746-750)) of the same compound?
Answer: 0.6 nM

Question: What about the IC50 [1] of the same compound?
Answer: 2.7 nM

Question: What does the source list for `COc1cc2ncnc(-c3cn(C)nc3-c3ccccc3)c2nc1O[C@H](C)c1nnc(C)o1` [Example 38, (R)-2-(1-((7-methoxy-4-(1-methyl-3-phenyl-1H-pyrazol-4-yl)pyrido[3,2-d]pyrimidin-6-yl)oxy)ethyl)-5-methyl-1,3,4-oxadiazole]?
Answer: IC50 (EGFR L858R): 5.9 nM; IC50 (EGFR (d746-750)): 6.7 nM; IC50 [1]: 25.6 nM

Question: With `COc1cc2ncnc(-c3cn(C)nc3-c3c(F)cccc3F)c2cc1NC(=O)[C@@]12C[C@@H]1CN(C)C2` [Example 292, (1S,5S)—N-(4-(3-(2,6-difluorophenyl)-1-methyl-1H-pyrazol-4-yl)-7-methoxyquinazolin-6-yl)-3-methyl-3-azabicyclo[3.1.0]hexane-1-carboxamide] as the compound, how does the IC50 (EGFR L858R) read?
Answer: 145 nM

Question: What about the IC50 (EGFR (d746-750)) of the same compound?
Answer: 3.2 nM

Question: What about the IC50 [1] of the same compound?
Answer: 9.6 nM

Question: How did the IC50 (EGFR L858R) turn out when `Cn1cc(-c2ncnc3cc(OC(F)F)c(NC(=O)C4(C(F)(F)F)CC4)nc23)c(-c2ccccc2)n1` [Example 465, N-(7-(difluoromethoxy)-4-(1-methyl-3-phenyl-1H-pyrazol-4-yl)pyrido[3,2-d]pyrimidin-6-yl)-1-(trifluoromethyl)cyclopropane-1-carboxamide] was run?
Answer: 4.9 nM

Question: What about the IC50 (EGFR (d746-750)) of the same compound?
Answer: 0.8 nM

Question: What about the IC50 [1] of the same compound?
Answer: 3.5 nM

Question: What does the source list for `COc1cc2ncnc(-c3cn(C)nc3-c3ccccc3)c2nc1NC(=O)[C@H]1C[C@H]2C[C@H]2N1C` [Example 419, (1R,3R,5R)—N-(7-methoxy-4-(1-methyl-3-phenyl-1H-pyrazol-4-yl)pyrido[3,2-d]pyrimidin-6-yl)-2-methyl-2-azabicyclo[3.1.0]hexane-3-carboxamide]?
Answer: IC50 (EGFR L858R): 1.6 nM; IC50 (EGFR (d746-750)): 1 nM; IC50 [1]: 0.4 nM

Question: For `COc1cc2ncnc(-c3cn(C)nc3-c3ccccc3)c2cc1NC(=O)c1ncccn1` [Example 192, N-(7-methoxy-4-(1-methyl-3-phenyl-1H-pyrazol-4-yl)quinazolin-6-yl)pyrimidine-2-carboxamide], which IC50 (EGFR L858R) is on record?
Answer: 1.1 nM

Question: And the IC50 (EGFR (d746-750))?
Answer: 0.7 nM

Question: And the IC50 [1]?
Answer: 1.6 nM
